ChEMBL document CHEMBL3885881, “DrugMatrix”

Organism: Rattus norvegicus
Test: DrugMatrix - Regimen: Daily Repeat
Type: toxicity, organism-based, Sprague-Dawley
Design: regimen Daily Repeat, gender Male, age 6-8 weeks
Conditions: in vivo, iv, […], vehicle 100 % SALINE; for MONOCYTE / NEUTROPHIL / NUCLEATED RED BLOOD CELLS / ABSOLUTE BASOPHIL / ABSOLUTE EOSINOPHIL / ABSOLUTE LYMPHOCYTE / ABSOLUTE MONOCYTE / ABSOLUTE SEGMENTED NEUTROPHIL / BASOPHIL / EOSINOPHIL / ERYTHROCYTE COUNT / HEMATOCRIT / HEMOGLOBIN / LEUKOCYTE COUNT / LYMPHOCYTE / MEAN CORPUSCULAR HEMOGLOBIN / MEAN CORPUSCULAR HEMOGLOBIN CONCENTRATION / MEAN CORPUSCULAR VOLUME: tissue Blood; for ALANINE AMINOTRANSFERASE / ALKALINE PHOSPHATASE / ASPARTATE AMINOTRANSFERASE / BLOOD UREA NITROGEN / CARBON DIOXIDE / CHOLESTEROL / CREATINE PHOSPHOKINASE / CREATININE / GLUCOSE / LACTATE DEHYDROGENASE / LIPASE / SODIUM / TOTAL BILIRUBIN / TOTAL PROTEIN / URIC ACID: tissue Plasma
[1] = 72 h, dose 2.7 mg/Kg, dose level High, time 3 day
[2] = 72 h, dose 0.27 mg/Kg, dose level Low, time 3 day
[3] = 120 h, dose 0.27 mg/Kg, dose level Low, time 5 day
[4] = 120 h, dose 2.7 mg/Kg, dose level High, time 5 day

COc1cccc2c1C(=O)c1c(O)c3c(c(O)c1C2=O)C[C@@](O)(C(=O)CO)C[C@@H]3O[C@H]1C[C@H](N)[C@@H](O)[C@H](C)O1 [EPIRUBICIN]
MONOCYTE [1]: 0.67% | NEUTROPHIL [1]: 8.67% | NUCLEATED RED BLOOD CELLS [1]: 0 /100WBC | ALANINE AMINOTRANSFERASE [2]: 37 u/L | ALKALINE PHOSPHATASE [2]: 440.33 u/L | ASPARTATE AMINOTRANSFERASE [2]: 76.33 u/L | BLOOD UREA NITROGEN [2]: 17 mg/dL | CARBON DIOXIDE [2]: 25 mmol/L | CHOLESTEROL [2]: 79.67 mg/dL | CREATINE PHOSPHOKINASE [2]: 317.67 u/L | CREATININE [2]: 0.15 mg/dL | GLUCOSE [2]: 161.33 mg/dL | LACTATE DEHYDROGENASE [2]: 433 u/L | LIPASE [2]: 9.33 u/L | SODIUM [2]: 143.3 MEQ/L | TOTAL BILIRUBIN [2]: 0.2 mg/dL | TOTAL PROTEIN [2]: 5.67 G/DL | URIC ACID [2]: 1.5 mg/dL | ALANINE AMINOTRANSFERASE [1]: 33 u/L | ALKALINE PHOSPHATASE [1]: 297.33 u/L | ASPARTATE AMINOTRANSFERASE [1]: 83.67 u/L | BLOOD UREA NITROGEN [1]: 13 mg/dL | CARBON DIOXIDE [1]: 26.33 mmol/L | CHOLESTEROL [1]: 96.33 mg/dL | CREATINE PHOSPHOKINASE [1]: 442.33 u/L | CREATININE [1]: 0.12 mg/dL | GLUCOSE [1]: 146.33 mg/dL | LACTATE DEHYDROGENASE [1]: 682.67 u/L | LIPASE [1]: 10 u/L | SODIUM [1]: 143.33 MEQ/L | TOTAL BILIRUBIN [1]: 0.0667 mg/dL | TOTAL PROTEIN [1]: 5.73 G/DL | URIC ACID [1]: 1.43 mg/dL | ABSOLUTE BASOPHIL [3]: 0 CELLS/uL | ABSOLUTE EOSINOPHIL [3]: 0 CELLS/uL | ABSOLUTE LYMPHOCYTE [3]: 12433.67 CELLS/uL | ABSOLUTE MONOCYTE [3]: 229 CELLS/uL | ABSOLUTE SEGMENTED NEUTROPHIL [3]: 504 CELLS/uL | BASOPHIL [3]: 0% | EOSINOPHIL [3]: 0% | ERYTHROCYTE COUNT [3]: 5.91 x10E6/uL | HEMATOCRIT [3]: 37.27% | HEMOGLOBIN [3]: 14.33 G/DL | LEUKOCYTE COUNT [3]: 13.17 x10E3/uL | LYMPHOCYTE [3]: 94.33% | MEAN CORPUSCULAR HEMOGLOBIN [3]: 24.27 pg | MEAN CORPUSCULAR HEMOGLOBIN CONCENTRATION [3]: 38.5 G/DL | MEAN CORPUSCULAR VOLUME [3]: 63.07 fL | MONOCYTE [3]: 1.67% | NEUTROPHIL [3]: 4% | NUCLEATED RED BLOOD CELLS [3]: 0 /100WBC | ABSOLUTE BASOPHIL [4]: 0 CELLS/uL | ABSOLUTE EOSINOPHIL [4]: 0 CELLS/uL | ABSOLUTE LYMPHOCYTE [4]: 1316 CELLS/uL | ABSOLUTE MONOCYTE [4]: 12 CELLS/uL | ABSOLUTE SEGMENTED NEUTROPHIL [4]: 72 CELLS/uL | BASOPHIL [4]: 0% | EOSINOPHIL [4]: 0% | ERYTHROCYTE COUNT [4]: 6.07 x10E6/uL | HEMATOCRIT [4]: 37.4% | HEMOGLOBIN [4]: 15.17 G/DL | LEUKOCYTE COUNT [4]: 1.4 x10E3/uL | LYMPHOCYTE [4]: 94% | MEAN CORPUSCULAR HEMOGLOBIN [4]: 25.13 pg | MEAN CORPUSCULAR HEMOGLOBIN CONCENTRATION [4]: 40.6 G/DL | MEAN CORPUSCULAR VOLUME [4]: 61.83 fL | MONOCYTE [4]: 1% | NEUTROPHIL [4]: 5% | NUCLEATED RED BLOOD CELLS [4]: 0 /100WBC | ALANINE AMINOTRANSFERASE [3]: 57.67 u/L | ALKALINE PHOSPHATASE [3]: 390.33 u/L | ASPARTATE AMINOTRANSFERASE [3]: 107.33 u/L | BLOOD UREA NITROGEN [3]: 16.67 mg/dL | CARBON DIOXIDE [3]: 25 mmol/L | CHOLESTEROL [3]: 75 mg/dL | CREATINE PHOSPHOKINASE [3]: 510.67 u/L | CREATININE [3]: 0.16 mg/dL | GLUCOSE [3]: 152 mg/dL | LACTATE DEHYDROGENASE [3]: 825.67 u/L | LIPASE [3]: 9 u/L | SODIUM [3]: 144.37 MEQ/L | TOTAL BILIRUBIN [3]: 0.17 mg/dL | TOTAL PROTEIN [3]: 5.9 G/DL | URIC ACID [3]: 1.63 mg/dL | ALANINE AMINOTRANSFERASE [4]: 29 u/L | ALKALINE PHOSPHATASE [4]: 172 u/L | ASPARTATE AMINOTRANSFERASE [4]: 79.33 u/L | BLOOD UREA NITROGEN [4]: 20.67 mg/dL | CARBON DIOXIDE [4]: 28 mmol/L | CHOLESTEROL [4]: 93 mg/dL | CREATINE PHOSPHOKINASE [4]: 725.67 u/L | CREATININE [4]: 0.12 mg/dL | GLUCOSE [4]: 151.33 mg/dL | LACTATE DEHYDROGENASE [4]: 374.33 u/L | LIPASE [4]: 8.67 u/L | SODIUM [4]: 141.7 MEQ/L | TOTAL BILIRUBIN [4]: 0.0667 mg/dL | TOTAL PROTEIN [4]: 5.67 G/DL | URIC ACID [4]: 1.37 mg/dL
